Entries after “also recorded” stand apart in the source; their conditions may differ.
Columns and labels:
[1] = system: CGNs; assay: MPP+-induced neurotoxicity in CGNs, MTT and LDH assays; assay type: cell-based, rat; settings: pre-treatment 2 hours, then 35 μM MPP+ for 24 hours
Method: All animal experiments were conducted according to the ethical guidelines of ICMS, Macau University and the Animal Care Facility, The Hong Kong Polytechnic University. Rat CGNs were prepared from 8-day-old Sprague-Dawley rats (The Animal Care Facility, The Hong Kong Polytechnic University) as described by Li et al., 2005. Briefly, neurons were seeded at a density of 2.7×10^5 cells/ml in basal modified Eagle's medium (Invitrogen) containing 10% fetal bovine serum, 25 mM KCl, 2 mM glutamine, and penicillin (100 units/ml)/streptomycin (100 μg/ml). Cytosine arabinoside (10 μM) was added to the culture medium 24 hour after plating to limit the growth of non-neuronal cells. With the use of this protocol, more than 95% of the cultured cells were granule neurons.
(§1) The percentage of surviving neurons in the presence of SU4312 and/or MPP^+ was estimated by determining the activity of mitochondrial dehydrogenases with 3(4,5-dimethylthiazol-2-yl)-2.5-diphenyltetrazolium bromide (MTT) assay (Li et al., 2007). The assay was performed according to the specifications of the manufacturer (MTT kit I; Roche Applied Science). Briefly, the neurons were cultured in 96-well plates, 10 μl of 5 mg/ml MTT labeling reagent was added to each well containing cells in 100 μl of medium, and the plates were incubated for 4 hours in a humidified incubator at 37° C. After the incubation, 100 μl of the solvating solution (0.01 N HCl in 10% SDS solution) was added to each well for 16-20 hours. Absorbance of the samples was measured at a wavelength of 570 nm with 655 nm as a reference wavelength. Unless otherwise indicated, the extent of MTT conversion in cells exposed to MPP^+ is expressed as a percentage of the control.
Cytotoxicity was determined by measuring the release of lactate dehydrogenase (LDH). Briefly, cells were precipitated by centrifugation at 500 g for 5 min at room temperature, 50 μl of the supernatants was transferred into new wells, and LDH was determined using the in vitro toxicology assay kit (Roche). The absorbance of the samples was measured at a wavelength of 490 nm with 655 nm as a reference wavelength.
Rat CGNs were prepared from 8-day-old Sprague-Dawley rats (The Animal Care Facility, The Hong Kong Polytechnic University) as described by Li et al., 2005. Briefly, neurons were seeded at a density of 2.7×10^5 cells/ml in basal modified Eagle's medium (Invitrogen) containing 10% fetal bovine serum, 25 mM KCl, 2 mM glutamine, and penicillin (100 units/ml)/streptomycin (100 μg/ml). Cytosine arabinoside (10 μM) was added to the culture medium 24 hours after plating to limit the growth of non-neuronal cells. With the use of this protocol, more than 95% of the cultured cells were granule neurons.
as §1, with “The” for “The percentage of surviving neurons in the presence of SU4312 and/or MPP^+ was estimated by determining the activity of mitochondrial dehydrogenases with 3(4,5-dimethylthiazol-2-yl)-2.5-diphenyltetrazolium bromide (MTT) assay (Li et al., 2007). The”, “incubated at 37° C.” for “incubated”, “incubator.” for “incubator at 37° C.”, “The absorbance” for “Absorbance”

[2] = biological target: iNOS (Homo sapiens, UniProt P35228); settings: cited from earlier work
[3] = biological target: nNOS (Homo sapiens, UniProt P29475); settings: cited from earlier work
[4] = system: zebrafish larvae; assay: Locomotion behavioral test of zebrafish larvae; assay type: in vivo; settings: for MPTP-induced deficit of swimming behavior (total distance travelled): 200 μM MPTP 2 days, then 10 μM MPTP plus drug 3 days, L-deprenyl 20 μM, L-dopa 150 μM
Method: (§2) Wild-type zebrafish (AB strain) and Tg (fli-1:EGFP) transgenic zebrafish were maintained as described in the Zebrafish Handbook (Westerfield, 1993). Zebrafish embryos were generated by natural pair-wise mating (3-12 months old) and raised at 28.5° C. in embryo medium (13.7 mM NaCl, 540 μM KCl, pH 7.4, 25 μM Na2HPO4, 44 μM KH2PO4, 300 μM CaCl2, 100 μM MgSO4, 420 μM NaHCO3, pH 7.4). […] An equal concentration of DMSO in embryo medium was used as vehicle control in each experiment.
Thus the MPTP exposure needs to last 5 day from 1 dpf. […] Thus subsequent locomotion behavioral studies were done with 200 μM MPTP for treatment for 2 days at 1 dpf then replacing insult with 10 μM MPTP for incubation for another 3 days.
(§3) After drug treatment, zebrafish larvae at 6 dpf were transferred into 96-well plates (1 fish/well and 12 larvae/group). Fishes responded with excessive stress reaction (such as rapid and disorganized swimming or immobility for 2 min) due to the handling and monitoring of the behavior were discarded. The experiments were performed in a calm enclosed area. The larvae were allowed to habituate to the new environment for 30 min prior to experiments. Behavior was monitored by an automated video tracking system (Viewpoint, ZebraLab, LifeSciences). The 96-well plates and camera were housed inside a Zebrabox and the swimming pattern of each fish was recorded for 10 min and repeated 3 times, once every other 10 min. The total distance moved was defined as the distance (in cm) that the fish had moved during one session (10 min).
Normally as late as 3 dpf, zebrafish larvae show very little spontaneous swimming, but by 5 dpf they spontaneously swim longer distances and independently search for food. The MPTP exposure therefore needs to last 5 days from 1 dpf. […] Thus subsequent locomotion behavioral studies were performed with 200 μM MPTP for 2-day treatment at 1 dpf then replacing with media containing 10 μM MPTP for another 3-day incubation.
as §3, with “The larvae were discarded due to” for “Fishes responded with”, “reaction to the handling and monitoring of behavior” for “reaction”, “min).” for “min) due to the handling and monitoring of the behavior were discarded.”, “sealed” for “enclosed”, “min. Swimming behavior” for “min prior to experiments. Behavior”, “for” for “repeated”

[5] = system: CGNs; assay: Low potassium-induced cell death in CGNs, MTT assay; assay type: cell-based; settings: 5 mM KCl BME medium, 24 hours; sunitinib 0.1-2 μM
Method: Cell viability was measured by MTT assay at 24 hours after low potassium challenge. […] After 24 hours of low potassium challenge, CGNs were assayed with an FDA/PI double staining. […] After 24 hours of low potassium challenge, CGNs were assayed with Hoechst staining. The number of apoptotic nuclei with condensed chromatin were counted from representative Hoechst staining photomicrographs and represented as a percentage of the total number of nuclei counted. […] Intracellular NO level was measured using DAF-FM diacetate as a probe at 4 hour after low potassium challenge. Data, expressed as percentage of control (CGNs were cultured in high potassium medium), were the mean±SEM of three separate experiments; *p<0.05 and **p<0.01 versus low potassium group in (A) and (D) or versus control in (C); ^##p<0.01 versus low potassium group in (C) (Turkey's test).
It was previously reported that low potassium could induce typical apoptosis in cerebellar granule neurons (CGNs) (Fu et al., 2008). […] Cell viability was measured with an MTT assay 24 hours after the low potassium treatment.

[6] = system: VEGFR-2; settings: cited from earlier work
[7] = system: intersegmental-vessel (ISV) formation; assay: Intersegmental-vessel formation in Tg(fli-1:EGFP) zebrafish; assay type: in vivo; settings: 1 dpf embryos treated 48 hours; SU4312 3-30 μM, PTK787/ZK222584 0.3-3 μM, VRI 0.1-0.3 μM, SU5416 0.3-1 μM
Method: as §2
After drug treatment, zebrafish were removed from microplate and observed for gross morphological changes of blood vessel under a fluorescence microscope (Olympus am Motorized Inverted Microscope, Japan) equipped with a digital camera (DP controller, Soft Imaging System, Olympus). Images were analyzed with Axiovision 4.2 and Adobe Photoshop 7.0.
(§4) Wild-type zebrafish (AB strain) and Tg(fli-1:EGFP) transgenic zebrafish were maintained as described in the Zebrafish Handbook (Westerfield, 1993). Zebrafish embryos were generated by natural pair-wise mating (3-12 months old) and were raised at 28.5° C. in embryo medium (13.7 mM NaCl, 540 μM KCl, pH 7.4, 25 μM Na2HPO4, 44 μM KH2PO4, 300 μM CaCl2, 100 μM MgSO4, 420 μM NaHCO3, pH 7.4). […] Equal concentration of DMSO in embryo medium was used as vehicle control in each experiment.
After drug treatment, zebrafish were removed from the microplate and observed for gross morphological changes of blood vessel under a fluorescence microscope (Olympus am Motorized Inverted Microscope, Japan) equipped with a digital camera (DP controller, Soft Imaging System, Olympus). Images were analyzed with Axiovision 4.2 and Adobe Photoshop 7.0.

[8] = system: DA neurons in the zebrafish brain; assay: MPTP zebrafish, whole-mount immunostaining against tyrosine hydroxylase; assay type: in vivo; settings: 200 μM MPTP, 2 days from 1 dpf; SU4312 3-30 μM, PTK787/ZK222584 0.3-3 μM, SU5416 0.1-1 μM, VRI 0.03-0.3 μM
Method: as §2

[9] = system: zebrafish; assay: Toxicity to zebrafish; assay type: in vivo; settings: SU5416 10 μM, VRI 3 μM, SU4312 up to 30 μM
Method: as §2, §4

Q: For CCSC(=N)N [EPTU, 2-ethyl-2-thiopseudourea], which “MPP+-induced cell death (cell viability, MTT and LDH assays)” value (“MPP+-induced cell death” below) [1] is on record?
A: prevented MPP^+-induced neuronal death in CGNs

Q: And the IC50 [2]?
A: 17 nM

Q: And the IC50 [3]?
A: 36 nM

Q: For C#CCN(C)[C@H](C)Cc1ccccc1 [L-deprenyl], which “MPTP-induced deficit of swimming behavior (total distance travelled)” value (“MPTP-induced deficit” for short) [4] is on record?
A: rescued

Q: With CNC(=N)NCCC[C@H](N)C(=O)O [L-NMMA] as the compound, how does the “low potassium-induced cell death (MTT)” value [5] read?
A: at 10-20 μM prevented low potassium-induced neuronal death in CGNs

Q: For CN(C)c1ccc(/C=C2\C(=O)Nc3ccccc32)cc1 [cis-SU4312], which IC50 [6] is on record?
A: 800 nM

Q: Which “MPP+-induced cell death” value [1] does the source give for CC(=N)NCc1cccc(CN)c1 [1400W] here?
A: failed to block neuronal death; also recorded: did not show protection

Q: Which IC50 [6] does the source give for CN(C)c1ccc(/C=C2/C(=O)Nc3ccccc32)cc1 [trans-SU4312] here?
A: 5200 nM

Q: With O=C1Nc2ccc(Br)cc2/C1=C/c1cc2c([nH]1)CCCC2 [VRI] as the compound, how does the “inhibition of intersegmental-vessel (ISV) formation” value [7] read?
A: inhibited the formation of intersegmental-vessels

Q: And the “MPP+-induced cell death” value [1]?
A: at 1 and 3 μM failed to block neuronal loss in vitro

Q: What about the “MPTP-induced deficit” value [4] of the same compound?
A: but not VRI ameliorated the MPTP-induced deficit of swimming behavior

Q: What about the “swimming behavior of normal zebrafish larvae, drug alone” value ([4]; zebrafish, in vivo) of the same compound?
A: Neither SU5416 nor VRI treatment alone notably altered the swimming behavior

Q: And the IC50 [6]?
A: 70000 nM

Q: What about the “MPTP-induced loss of DA neurons / decrease of TH+ region area” value [8] of the same compound?
A: could not prevent MPTP-induced decrease in TH^+ region area

Q: What about the toxicity to zebrafish [9] of the same compound?
A: showed toxicity to zebrafish

Q: With N[C@@H](Cc1ccc(O)c(O)c1)C(=O)O [levodopa] as the compound, how does the “MPTP-induced deficit” value [4] read?
A: rescued
